SMILES: COCCNc1c(S(=O)(=O)C(F)(F)F)c(C#N)nn1-c1c(Cl)cc(C(F)(F)F)cc1Cl
- melting point: 164 °C
